Calls of active or inactive are those of the source.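 The calls were made as follows: active = p38 protein level shifted at least 30% from solvent-only control, either down or up; inactive = shift under 30% either way.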

The source of these data is PubChem BioAssay AID588662 (The Scripps Research Institute Molecular Screening Center, 2011).

The assay deals with Mitogen-activated protein kinase 14 (Homo sapiens) (UniProt Q16539). The assay is described as follows: altered p38 MAPK protein abundance – SW620 cells, chemiluminescent western blot, powder samples, counter-screen for KLF5 inhibitor project, late-stage follow-up (AID 588662). As to conditions: 24 h, at 10 µM.
Mitogen-activated protein kinase 14 (Homo sapiens), sequence (Q16539 whole entry, looked up): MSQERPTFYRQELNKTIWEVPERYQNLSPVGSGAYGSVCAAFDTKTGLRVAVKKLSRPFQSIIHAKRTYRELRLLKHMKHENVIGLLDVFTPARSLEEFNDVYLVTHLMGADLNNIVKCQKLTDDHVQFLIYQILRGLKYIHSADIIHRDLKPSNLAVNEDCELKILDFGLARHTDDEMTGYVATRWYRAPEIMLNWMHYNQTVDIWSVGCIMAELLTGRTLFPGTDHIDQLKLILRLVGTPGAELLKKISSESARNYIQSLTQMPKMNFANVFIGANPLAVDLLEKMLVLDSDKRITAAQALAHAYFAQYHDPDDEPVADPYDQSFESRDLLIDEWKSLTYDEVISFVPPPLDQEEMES

As for `CN(C(=O)CNC(=O)/C=C/c1cccc(Cl)c1)C1CCS(=O)(=O)CC1`, the inhibition is -41.1%. For the compound `CN(C(=O)CNC(=O)/C=C/c1cccc(Cl)c1)C1CCS(=O)(=O)C1` (stereo not drawn), the inhibition is 1.69% (inactive). With `CN(C(=O)COC(=O)/C=C/c1cccc([N+](=O)[O-])c1)C1CCS(=O)(=O)C1` (stereo not drawn), the inhibition was -3.03% (inactive).

One may read the inhibition as the drop in the measured response relative to a control, in per cent.
